Earlier results as cited in patent US20170143622A1, “STABLE LIQUID READY-TO-USE INJECTABLE FORMULATION OF BORTEZOMIB” (DR. REDDY'S LABORATORIES LIMITED, priority 2014, published 2017).
Where two headings read alike, the source gives them in different places.

What was measured:
[1] = ethanol composition, 40° C. and 75% relative humidity, 1 month
[2] = 25° C.
[3] = polyethylene glycol (PEG)

Question: Which results are given for `CC(C)C[C@H](NC(=O)[C@H](Cc1ccccc1)NC(=O)c1cnccn1)B(O)O` [bortezomib, [(1R)-3-methyl-1-[[(2S)-1-oxo-3-phenyl-2[(pyrazinylcarbonyl)amino]propyl]amino]butyl]boronic acid]?
Answer: Bortezomib degraded to [1]: 76%; Degradation ([2]; ethanol: normal saline solution (2:98, pH 2.8), bortezomib 0.5 mg/ml, 1 month): 20%; Degradation ([2]; polyethylene glycol (PEG) 300: Ethanol:Water (40:10:50), 24 hours): ≤ 20%; Degradation ([2]; propylene glycol (PG): Ethanol:Water (50:10:40), 8 months): 20%; Solubility in PEG [3]: insolubility
